Experimental data: ChEMBL document CHEMBL3259645, “Design and synthesis of spirocyclic compounds as HCV replication inhibitors by targeting viral NS4B protein” (Bioorg Med Chem Lett, 2014)
≈ marks a conversion by molar mass, not a printed value.

tested on: Hepatitis C virus; assay: Ratio of EC50 for Hepatitis C virus genotype 1b harboring NS4B H94N mutant infected in human HuH7 cells to EC50 for wild type Hepatitis C virus genotype 1b infected in human HuH7 cells; assay type: functional, Hepacivirus hominis, Huh-7; details: not given

Compound | Ratio EC50
O=C(c1nn2c(C(F)(F)F)cc(C3CC3)cc2c1Cl)N1CCC2(CC1)OCC1(CC1)CO2 | 5.9
O=C(c1nn2c(C(F)(F)F)cc(C3CC3)cc2c1Cl)N1CCC2(OCC3(CC3)CO2)[C@H](O)C1 | 29.9
CN1CC2(CCN(C(=O)c3nn4c(C(F)(F)F)cc(C5CC5)cc4c3Cl)CC2)OC1=O | 12.5
CN1C[C@@]2(CCN(C(=O)c3nn4c(C(F)(F)F)cc(C5CC5)cc4c3Cl)C[C@@H]2O)OC1=O | 27.3

tested on: not listed separately; assay: Kinetic solubility of the compound at pH 7.4; assay type: physicochemical; details: buffer, read-out: Kinetic_solubility

Compound | solubility kinetic [µg/mL]
O=C(c1nn2c(C(F)(F)F)cc(C3CC3)cc2c1Cl)N1CCC2(CC1)OCC1(CC1)CO2 | 105 (≈ 223 µM)
O=C(c1nn2c(C(F)(F)F)cc(C3CC3)cc2c1Cl)N1CCC2(OCC3(CC3)CO2)[C@H](O)C1 | 323 (≈ 665 µM)
CN1CC2(CCN(C(=O)c3nn4c(C(F)(F)F)cc(C5CC5)cc4c3Cl)CC2)OC1=O | 267 (≈ 584 µM)
CN1C[C@@]2(CCN(C(=O)c3nn4c(C(F)(F)F)cc(C5CC5)cc4c3Cl)C[C@@H]2O)OC1=O | 310 (≈ 656 µM)

tested on: Hepatitis C virus; assay: Antiviral activity against Hepatitis C virus genotype 1b infected in human HuH7 cells assessed as inhibition of replicon replication after 48 hrs by luciferase reporter gene assay; assay type: functional, cell-based, Hepacivirus hominis; details: Huh-7, 48 h

Compound | EC50 [nM]
O=C(c1nn2c(C(F)(F)F)cc(C3CC3)cc2c1Cl)N1CCC2(OCC3(CC3)CO2)C(O)C1 (stereo unspecified) | 2.2
O=C(c1nc2c(C(F)(F)F)cc(Br)cn2c1Cl)N1CCC(N2CCOC2=O)CC1 | 45.5
O=C(c1nn2c(C(F)(F)F)cc(C3CC3)cc2c1Cl)N1CCCC2(C1)OCCCO2 | > 500
O=C(c1nn2c(C(F)(F)F)cc(C3CC3)cc2c1Cl)N1CCC2(CC1)OCC1(CC1)CO2 | 4.1
O=C(c1nn2c(C(F)(F)F)cc(C3CC3)cc2c1Cl)N1CCC2(OCC3(CC3)CO2)[C@H](O)C1 | 1.2
CN1CC2(CCN(C(=O)c3nn4c(C(F)(F)F)cc(C5CC5)cc4c3Cl)CC2)OC1=O | 3.4
CN1C[C@@]2(CCN(C(=O)c3nn4c(C(F)(F)F)cc(C5CC5)cc4c3Cl)C[C@@H]2O)OC1=O | 6.1

tested on: Hepatitis C virus; assay: Antiviral activity against Hepatitis C virus genotype 2a; assay type: functional, Hepacivirus hominis; details: not given

Compound | EC50 [µM]
O=C(c1nn2c(C(F)(F)F)cc(C3CC3)cc2c1Cl)N1CCC2(CC1)OCC1(CC1)CO2 | 6.84
O=C(c1nn2c(C(F)(F)F)cc(C3CC3)cc2c1Cl)N1CCC2(OCC3(CC3)CO2)[C@H](O)C1 | 11.3
CN1CC2(CCN(C(=O)c3nn4c(C(F)(F)F)cc(C5CC5)cc4c3Cl)CC2)OC1=O | 6.84
CN1C[C@@]2(CCN(C(=O)c3nn4c(C(F)(F)F)cc(C5CC5)cc4c3Cl)C[C@@H]2O)OC1=O | 38

tested on: not listed separately; assay: Cytotoxicity against human HuH7 cells infected with Hepatitis C virus genotype 1b; assay type: cell-based, Huh-7; details: not given

Compound | CC50 [µM]
O=C(c1nn2c(C(F)(F)F)cc(C3CC3)cc2c1Cl)N1CCC2(OCC3(CC3)CO2)C(O)C1 (stereo unspecified) | > 50
O=C(c1nn2c(C(F)(F)F)cc(C3CC3)cc2c1Cl)N1CCCC2(C1)OCCCO2 | > 50
O=C(c1nn2c(C(F)(F)F)cc(C3CC3)cc2c1Cl)N1CCC2(CC1)OCC1(CC1)CO2 | > 50
O=C(c1nn2c(C(F)(F)F)cc(C3CC3)cc2c1Cl)N1CCC2(OCC3(CC3)CO2)[C@H](O)C1 | > 50
CN1CC2(CCN(C(=O)c3nn4c(C(F)(F)F)cc(C5CC5)cc4c3Cl)CC2)OC1=O | > 50
CN1C[C@@]2(CCN(C(=O)c3nn4c(C(F)(F)F)cc(C5CC5)cc4c3Cl)C[C@@H]2O)OC1=O | > 50

tested on: Hepatitis C virus; assay: Ratio of EC50 for Hepatitis C virus genotype 1b harboring NS4B V105M mutant infected in human HuH7 cells to EC50 for wild type Hepatitis C virus genotype 1b infected in human HuH7 cells; assay type: functional, Hepacivirus hominis, Huh-7; details: not given

Compound | Ratio EC50
O=C(c1nn2c(C(F)(F)F)cc(C3CC3)cc2c1Cl)N1CCC2(CC1)OCC1(CC1)CO2 | 16.5
O=C(c1nn2c(C(F)(F)F)cc(C3CC3)cc2c1Cl)N1CCC2(OCC3(CC3)CO2)[C@H](O)C1 | 143
CN1CC2(CCN(C(=O)c3nn4c(C(F)(F)F)cc(C5CC5)cc4c3Cl)CC2)OC1=O | 6
CN1C[C@@]2(CCN(C(=O)c3nn4c(C(F)(F)F)cc(C5CC5)cc4c3Cl)C[C@@H]2O)OC1=O | 185

tested on: Hepatitis C virus; assay: Antiviral activity against Hepatitis C virus genotype 1b harboring NS4B V105M mutant infected in human HuH7 cells assessed as inhibition of replicon replication after 48 hrs by luciferase reporter gene assay; assay type: functional, cell-based, Hepacivirus hominis; details: Huh-7, 48 h

Compound | EC50 [nM]
O=C(c1nn2c(C(F)(F)F)cc(C3CC3)cc2c1Cl)N1CCC2(CC1)OCC1(CC1)CO2 | 67.6
O=C(c1nn2c(C(F)(F)F)cc(C3CC3)cc2c1Cl)N1CCC2(OCC3(CC3)CO2)[C@H](O)C1 | 172
CN1CC2(CCN(C(=O)c3nn4c(C(F)(F)F)cc(C5CC5)cc4c3Cl)CC2)OC1=O | 20.4
CN1C[C@@]2(CCN(C(=O)c3nn4c(C(F)(F)F)cc(C5CC5)cc4c3Cl)C[C@@H]2O)OC1=O | 1130

tested on: Hepatitis C virus; assay: Antiviral activity against Hepatitis C virus genotype 1a infected in human HuH7 cells assessed as inhibition of replicon replication after 48 hrs by luciferase reporter gene assay; assay type: functional, cell-based, Hepacivirus hominis; details: subtype 1a, Huh-7, 48 h

Compound | EC50 [nM]
O=C(c1nn2c(C(F)(F)F)cc(C3CC3)cc2c1Cl)N1CCC2(OCC3(CC3)CO2)C(O)C1 (stereo unspecified) | 4.3
O=C(c1nc2c(C(F)(F)F)cc(Br)cn2c1Cl)N1CCC(N2CCOC2=O)CC1 | 31.4
O=C(c1nn2c(C(F)(F)F)cc(C3CC3)cc2c1Cl)N1CCCC2(C1)OCCCO2 | > 500
O=C(c1nn2c(C(F)(F)F)cc(C3CC3)cc2c1Cl)N1CCC2(CC1)OCC1(CC1)CO2 | 9
O=C(c1nn2c(C(F)(F)F)cc(C3CC3)cc2c1Cl)N1CCC2(OCC3(CC3)CO2)[C@H](O)C1 | 1.5
CN1CC2(CCN(C(=O)c3nn4c(C(F)(F)F)cc(C5CC5)cc4c3Cl)CC2)OC1=O | 2
CN1C[C@@]2(CCN(C(=O)c3nn4c(C(F)(F)F)cc(C5CC5)cc4c3Cl)C[C@@H]2O)OC1=O | 10.9

tested on: not listed separately; assay: Cmax in rat at 5 mg/kg, po; assay type: ADME, organism-based; parameters: dose 5 mg/kg, route oral; details: in vivo

Compound | Cmax [ng/mL]
O=C(c1nn2c(C(F)(F)F)cc(C3CC3)cc2c1Cl)N1CCC2(CC1)OCC1(CC1)CO2 | 254
O=C(c1nn2c(C(F)(F)F)cc(C3CC3)cc2c1Cl)N1CCC2(OCC3(CC3)CO2)[C@H](O)C1 | 1130
CN1CC2(CCN(C(=O)c3nn4c(C(F)(F)F)cc(C5CC5)cc4c3Cl)CC2)OC1=O | 269
CN1C[C@@]2(CCN(C(=O)c3nn4c(C(F)(F)F)cc(C5CC5)cc4c3Cl)C[C@@H]2O)OC1=O | 344

tested on: not listed separately; assay: Oral bioavailability in rat at 5 mg/kg; assay type: ADME, organism-based; details: in vivo

Compound | bioavailability [%]
O=C(c1nn2c(C(F)(F)F)cc(C3CC3)cc2c1Cl)N1CCC2(CC1)OCC1(CC1)CO2 | 29
O=C(c1nn2c(C(F)(F)F)cc(C3CC3)cc2c1Cl)N1CCC2(OCC3(CC3)CO2)[C@H](O)C1 | > 100
CN1CC2(CCN(C(=O)c3nn4c(C(F)(F)F)cc(C5CC5)cc4c3Cl)CC2)OC1=O | 72
CN1C[C@@]2(CCN(C(=O)c3nn4c(C(F)(F)F)cc(C5CC5)cc4c3Cl)C[C@@H]2O)OC1=O | 49

tested on: not listed separately; assay: Clearance in rat at 1 mg/kg, iv; assay type: ADME, organism-based; parameters: dose 1 mg/kg, route intravenous; details: in vivo

Compound | clearance [mL/min/kg]
O=C(c1nn2c(C(F)(F)F)cc(C3CC3)cc2c1Cl)N1CCC2(CC1)OCC1(CC1)CO2 | 37.8
O=C(c1nn2c(C(F)(F)F)cc(C3CC3)cc2c1Cl)N1CCC2(OCC3(CC3)CO2)[C@H](O)C1 | 35.7
CN1CC2(CCN(C(=O)c3nn4c(C(F)(F)F)cc(C5CC5)cc4c3Cl)CC2)OC1=O | 56.5
CN1C[C@@]2(CCN(C(=O)c3nn4c(C(F)(F)F)cc(C5CC5)cc4c3Cl)C[C@@H]2O)OC1=O | 25.7

tested on: not listed separately; assay: Volume of distribution at steady state in rat at 1 mg/kg, iv and 5 mg/kg, po; assay type: ADME, organism-based; details: in vivo, read-out: Vdss

Compound | Vd [L/kg]
O=C(c1nn2c(C(F)(F)F)cc(C3CC3)cc2c1Cl)N1CCC2(CC1)OCC1(CC1)CO2 | 4.5
O=C(c1nn2c(C(F)(F)F)cc(C3CC3)cc2c1Cl)N1CCC2(OCC3(CC3)CO2)[C@H](O)C1 | 0.8
CN1CC2(CCN(C(=O)c3nn4c(C(F)(F)F)cc(C5CC5)cc4c3Cl)CC2)OC1=O | 2.1
CN1C[C@@]2(CCN(C(=O)c3nn4c(C(F)(F)F)cc(C5CC5)cc4c3Cl)C[C@@H]2O)OC1=O | 2

tested on: not listed separately; assay: Half life in human hepatocytes; assay type: ADME, cell-based, Hepatocyte; details: not given

Compound | half-life [min]
O=C(c1nn2c(C(F)(F)F)cc(C3CC3)cc2c1Cl)N1CCC2(CC1)OCC1(CC1)CO2 | 30
O=C(c1nn2c(C(F)(F)F)cc(C3CC3)cc2c1Cl)N1CCC2(OCC3(CC3)CO2)[C@H](O)C1 | 50
CN1CC2(CCN(C(=O)c3nn4c(C(F)(F)F)cc(C5CC5)cc4c3Cl)CC2)OC1=O | 66
CN1C[C@@]2(CCN(C(=O)c3nn4c(C(F)(F)F)cc(C5CC5)cc4c3Cl)C[C@@H]2O)OC1=O | 123

tested on: not listed separately; assay: AUC (0 to 24 hrs) in rat at 5 mg/kg, po; assay type: ADME, organism-based; parameters: time < 24 hr, dose 5 mg/kg, route oral; details: plasma

Compound | AUC(0-t) at 24 h [ng·h/mL]
O=C(c1nn2c(C(F)(F)F)cc(C3CC3)cc2c1Cl)N1CCC2(CC1)OCC1(CC1)CO2 | 693
O=C(c1nn2c(C(F)(F)F)cc(C3CC3)cc2c1Cl)N1CCC2(OCC3(CC3)CO2)[C@H](O)C1 | 2790
CN1CC2(CCN(C(=O)c3nn4c(C(F)(F)F)cc(C5CC5)cc4c3Cl)CC2)OC1=O | 1060
CN1C[C@@]2(CCN(C(=O)c3nn4c(C(F)(F)F)cc(C5CC5)cc4c3Cl)C[C@@H]2O)OC1=O | 1530

tested on: not listed separately; assay: Displacement of biotinylated anti-His antibody from C-terminal 6X His-tagged Hepatitis C virus genotype 1b NS4B expressed in baculovirus-infected Sf9 cells by microplate assay; parameters: species or system Hepatitis C virus subtype 1b; details: not given

Compound | IC50 [nM]
O=C(c1nn2c(C(F)(F)F)cc(C3CC3)cc2c1Cl)N1CCC2(CC1)OCC1(CC1)CO2 | 32
O=C(c1nn2c(C(F)(F)F)cc(C3CC3)cc2c1Cl)N1CCC2(OCC3(CC3)CO2)[C@H](O)C1 | 10.2
CN1CC2(CCN(C(=O)c3nn4c(C(F)(F)F)cc(C5CC5)cc4c3Cl)CC2)OC1=O | 23.4
CN1C[C@@]2(CCN(C(=O)c3nn4c(C(F)(F)F)cc(C5CC5)cc4c3Cl)C[C@@H]2O)OC1=O | 30.4

tested on: not listed separately; assay: Half life in rat hepatocytes; assay type: ADME, cell-based, Hepatocyte; details: not given

Compound | half-life [min]
O=C(c1nn2c(C(F)(F)F)cc(C3CC3)cc2c1Cl)N1CCC2(CC1)OCC1(CC1)CO2 | < 15
O=C(c1nn2c(C(F)(F)F)cc(C3CC3)cc2c1Cl)N1CCC2(OCC3(CC3)CO2)[C@H](O)C1 | 28
CN1CC2(CCN(C(=O)c3nn4c(C(F)(F)F)cc(C5CC5)cc4c3Cl)CC2)OC1=O | 80
CN1C[C@@]2(CCN(C(=O)c3nn4c(C(F)(F)F)cc(C5CC5)cc4c3Cl)C[C@@H]2O)OC1=O | 132

tested on: Hepatitis C virus; assay: Antiviral activity against Hepatitis C virus genotype 1b harboring NS4B H94N mutant infected in human HuH7 cells assessed as inhibition of replicon replication after 48 hrs by luciferase reporter gene assay; assay type: functional, cell-based, Hepacivirus hominis; details: Huh-7, 48 h

Compound | EC50 [nM]
O=C(c1nn2c(C(F)(F)F)cc(C3CC3)cc2c1Cl)N1CCC2(CC1)OCC1(CC1)CO2 | 24.3
O=C(c1nn2c(C(F)(F)F)cc(C3CC3)cc2c1Cl)N1CCC2(OCC3(CC3)CO2)[C@H](O)C1 | 35.9
CN1CC2(CCN(C(=O)c3nn4c(C(F)(F)F)cc(C5CC5)cc4c3Cl)CC2)OC1=O | 42.7
CN1C[C@@]2(CCN(C(=O)c3nn4c(C(F)(F)F)cc(C5CC5)cc4c3Cl)C[C@@H]2O)OC1=O | 175
